In patent US6683055B1, “Low molecular weight inhibitors of complement proteases” (BASF Aktiengesellschaft, priority 1999, dated 2004):
Structures can show the parent of a compound that is named as a salt.

What was measured:
[1] = target: T1, C1r from human plasma, activated, two-chain form (Homo sapiens, UniProt P00736); assay: Color substrate test for C1r inhibition (Example A); format: biochemical; conditions: amidolytic C1r activity, substrate Cbz-Gly-Arg-S-Bzl; read-out: C1R IC50 according to Example A
T1 construct: from tissue; host or cells: human plasma
T1 sequence (P00736 18-463 partner limits assumed): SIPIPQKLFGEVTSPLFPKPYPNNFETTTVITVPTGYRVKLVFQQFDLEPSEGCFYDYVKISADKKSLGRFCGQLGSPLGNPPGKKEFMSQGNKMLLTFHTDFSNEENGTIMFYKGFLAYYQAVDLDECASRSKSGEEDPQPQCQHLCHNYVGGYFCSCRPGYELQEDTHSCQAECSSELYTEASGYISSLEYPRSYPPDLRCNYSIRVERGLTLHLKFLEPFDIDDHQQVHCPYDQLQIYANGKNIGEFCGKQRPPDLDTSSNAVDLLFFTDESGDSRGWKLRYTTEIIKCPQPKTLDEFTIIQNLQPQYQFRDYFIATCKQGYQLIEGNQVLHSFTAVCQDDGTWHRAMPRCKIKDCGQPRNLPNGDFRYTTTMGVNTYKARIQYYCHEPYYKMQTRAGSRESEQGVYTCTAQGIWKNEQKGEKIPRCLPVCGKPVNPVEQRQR
T1 sequence (P00736 464-705 limits assumed): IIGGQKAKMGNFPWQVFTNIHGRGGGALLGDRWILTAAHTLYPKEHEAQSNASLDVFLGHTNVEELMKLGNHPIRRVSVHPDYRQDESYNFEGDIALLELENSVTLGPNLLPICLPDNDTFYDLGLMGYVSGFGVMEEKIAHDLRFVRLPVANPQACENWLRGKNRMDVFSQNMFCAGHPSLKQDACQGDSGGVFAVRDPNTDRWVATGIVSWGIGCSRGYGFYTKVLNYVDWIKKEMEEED
Excerpt: Color Substrate Test for C1r Inhibition

[2] = target: T2, C1s from human plasma, activated, two-chain form (Homo sapiens, UniProt P09871); assay: Color substrate test for C1s inhibition (Example B); format: biochemical; conditions: amidolytic C1s activity, substrate Cbz-Gly-Arg-S-Bzl; read-out: C1S IC50 according to Example B
T2 construct: from tissue; host or cells: human plasma
T2 sequence (P09871 16-437 partner limits assumed): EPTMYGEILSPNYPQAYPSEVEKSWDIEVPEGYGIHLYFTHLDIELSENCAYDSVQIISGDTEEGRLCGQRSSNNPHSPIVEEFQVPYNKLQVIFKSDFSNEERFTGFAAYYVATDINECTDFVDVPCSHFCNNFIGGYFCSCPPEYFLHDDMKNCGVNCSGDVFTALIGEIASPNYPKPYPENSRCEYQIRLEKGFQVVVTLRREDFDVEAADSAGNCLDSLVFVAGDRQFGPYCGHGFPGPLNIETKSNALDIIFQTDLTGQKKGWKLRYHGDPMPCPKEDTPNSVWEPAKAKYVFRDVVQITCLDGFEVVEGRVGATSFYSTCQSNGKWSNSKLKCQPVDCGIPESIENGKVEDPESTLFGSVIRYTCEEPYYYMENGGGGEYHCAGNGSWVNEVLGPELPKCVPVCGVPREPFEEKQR
T2 sequence (P09871 438-688 limits assumed): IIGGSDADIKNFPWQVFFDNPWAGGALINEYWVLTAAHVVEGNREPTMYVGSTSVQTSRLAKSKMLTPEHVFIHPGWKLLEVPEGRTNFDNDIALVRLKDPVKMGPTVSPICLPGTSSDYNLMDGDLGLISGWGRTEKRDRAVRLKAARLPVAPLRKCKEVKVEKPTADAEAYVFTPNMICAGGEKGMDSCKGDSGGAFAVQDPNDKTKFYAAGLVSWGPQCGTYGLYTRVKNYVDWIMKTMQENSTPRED
Excerpt: Material and Methods: Color Subrate Test for C1s Inhibition

IC50 [1] [µM] | IC50 [2] [µM] | Compound
40 | 3 | Cc1c(C(=N)N)csc1CNC(=O)[C@@H]1C=CCN1C(=O)[C@H](NCC(=O)O)C1CCCCC1 [Example 51, HOOC—CH2-(D)Chg-Pyr-NH—CH2-5-(4-Me-3-am)-thioph.CH3COOH]
50 | 20 | CCCCCCCCS(=O)(=O)N[C@H](Cc1ccccc1)C(=O)N1CCC[C@H]1C(=O)NCc1ccc(C(=N)N)cc1 [Example 2, n-Octyl-SO2-(D)Phe-Pro-NH-p-amb.CH3COOH]
> 100 | 0.8 | N=C(N)c1ccc(CNC(=O)[C@@H]2CCCN2C(=O)[C@H](NCCCCCC(=O)O)C2CCCCC2)cn1 [Example 24, HOOC—(CH2)5-(D)Chg-Pro-NH-3-(6-am)-pico.CH3COOH]
40 | 3 | N=C(N)c1coc(CNC(=O)[C@@H]2C=CCN2C(=O)[C@@H](CC2CCCCC2)NCC(=O)O)c1 [Example 44, HOOC—CH2-(D)Cha-Pyr-NH—CH2-5-(3-am)-fur.CH3COOH]
> 100 | 20 | N=C(N)c1ccc(CNC(=O)[C@@H]2C=CCN2C(=O)CN(Cc2ccccc2)Cc2ccccc2)cn1 [Example 28, (C6H5—CH2)2-Gly-Pyr-NH-3-(6-am)-pico.CH3COOH]
6 | 20 | N=C(N)c1csc(CNC(=O)C2SCCN2C(=O)[C@H](NCC(=O)O)C2CCCCC2)c1 (stereo partly drawn) [Example 45, HOOC—CH2-(D)Chg-Thz-2-CO—NH—CH2-5-(3-am)-thioph]
> 100 | 20 | N=C(N)c1ccc(CNC(=O)[C@@H]2CCCN2C(=O)CNC(=O)CCCc2ccccc2)cc1 [Example 9, C6H5—(CH2)3—CO-Gly-Pro-NH-p-amb.HI]
0.6 | 2 | CC(C)(C)OC(=O)Nc1ccc(CS(=O)(=O)N[C@H](CC2CCCCC2)C(=O)N2CC=C[C@H]2C(=O)NCc2ccc(C(=N)N)nc2)cc1 [Example 20, Boc-NH-p-C6H4CH2—SO2-(D)Cha-Pyr-NH-3-(6-am)-pico-CH3COOH]
> 100 | 4 | 2-C6H10—CH2-Gly-Pro-NH-p-amb.2HCl [Example 7]
0.9 | 0.6 | CC(C)(C)OC(=O)Nc1ccc(CS(=O)(=O)N[C@@H](C(=O)N2CC=C[C@H]2C(=O)NCc2ccc(C(=N)N)nc2)C2CCCCC2)cc1 [Example 22, Boc-NH-p-C6H4—CH2—SO2-(D)Chg-Pyr-NH-3-(6-am)-pico.CH3COOH]
> 100 | 20 | N=C(N)c1ccc(CNC(=O)[C@@H]2CCCN2C(=O)[C@H](NS(=O)(=O)CC(=O)O)C2CCCCC2)cn1 [Example 16, HOOC—CH2—SO2-(D)Chg-Pro-NH-3-(6-am)-pico.CH3COOH]
30 | 10 | CS(=O)(=O)N[C@H](CC1CCCCC1)C(=O)N1CC=C[C@H]1C(=O)NCc1ccc(C(=N)N)nc1 [Example 13, CH3—SO2-(D)Cha-Pyr-NH-3-(6-am)-pico.CH3COOH]
0.9 | 0.6 | N=C(N)c1ccc(CNC(=O)[C@@H]2C=CCN2C(=O)[C@H](NCC(=O)O)C2CCCCC2)s1 [Example 29, HOOC—CH2-(D)Chg-Pyr-NH-CH2-5-(2-am)-thioph.CH3COOH]
> 100 | 30 | N=C(N)c1ccc(CNC(=O)[C@@H]2CCCN2C(=O)[C@@H](Cc2ccccc2)NCCCS(=O)(=O)O)cc1 [Example 12, HO3S—(CH2)3-(D)Phe-Pro-NH-p-amb.HCl]
10 | 50 | N=C(N)c1csc(CNC(=O)[C@@H]2CC3CCCCC3N2C(=O)[C@@H](CC2CCCCC2)NCC(=O)O)c1 (stereo partly drawn) [Example 47, HOOC—CH2-(D)Cha-(L)Ohi-2-CO—NH—CH2-5-(3-am)-thioph.HCl]
20 | 3 | N=C(N)c1csc(CNC(=O)C2C=CCN2C(=O)C(CC2CCCCC2)NCC(=O)O)c1Cl (stereo not drawn) [Example 50, HOOC—CH2(D)Cha-Pyr-NH—CH2-5-(4-Cl-3-am)-thioph.CH3COOH]

IC50 [1] [µM] | IC50 [2] [µM] | Compound
> 100 | 20 | CS(=O)(=O)N[C@@H](C(=O)N1CCC[C@H]1C(=O)NCc1ccc(C(=N)N)nc1)C1CCCCC1 [Example 14, CH3—SO2-(D)Chg-Pro-NH-3-(6-am)-pico.CH3COOH]
> 100 | 5 | HOOC—CH2—CH2-(D)Cha-Pro-NH-CH2-5-(2-am)-thioph.CH3COOH [Example 30]
30 | 3 | CS(=O)(=O)N[C@H](CC1CCCCC1)C(=O)N1CC=C[C@H]1C(=O)NCc1ccc(C(=N)N)cc1 [Example 4, CH3—SO2-(D)Cha-Pyr-NH-p-amb.CH3COOH]
10 | 20 | CC(C)(C)OC(=O)CCCN[C@@H](C(=O)N1CCC[C@H]1C(=O)NCc1ccc(C(=N)N)nc1)C1CCCCC1 [Example 27, t-BUOOC—(CH2)3-(D)Chg-Pro-NH-3-(6-am)-pico.CH3COOH]
> 100 | 30 | N=C(N)c1ccc(CNC(=O)[C@@H]2CCCN2C(=O)[C@H]2Cc3ccccc3CN2)cc1 [Example 11, H-(D)3-Tic-Pro-NH-p-amb.2CH3COOH]
3 | 10 | N=C(N)c1ccc(CNC(=O)[C@@H]2CCN2C(=O)[C@H](NCC(=O)O)C2CCCCC2)s1 [Example 31, HOOC—CH2-(D)Chg-Aze-NH-CH2-5-(2-am)-thioph]
2 | 2 | N=C(N)c1csc(CNC(=O)[C@@H]2C=CCN2C(=O)C(NCC(=O)O)C2CCCCCC2)c1 (stereo partly drawn) [Example 41, HOOC—CH2-Cheg-Pyr-NH—CH2-5-(3-am)-thioph.CH3COOH]
4 | 1 | N=C(N)c1ccc(CNC(=O)[C@@H]2C=CCN2C(=O)[C@@H](CC2CCCCC2)NS(=O)(=O)Cc2ccc(N)cc2)cn1 [Example 21, H2N-p-C6H4CH2—SO2-(D)Cha-Pyr-NH-3-(6-am)-pico-HCl]
50 | 30 | N=C(N)c1csc(CNC(=O)[C@@H]2CC3CCCCC3N2C(=O)[C@H](NCC(=O)O)C2CCCCC2)c1 (stereo partly drawn) [Example 48, HOOC—CH2-(D)Chg-(L)Ohi-2-CO—NH—CH2-5-(3-am)-thioph.HCl]
– | 8 | N=C(N)Nc1ncc(CNC(=O)[C@@H]2C=CCN2C(=O)[C@@H](CC2CCCCC2)NCC(=O)O)s1 [Example 54, N-(Hydroxycarbonyl-methylene)-(D)cyclohexylalanyl-3,4-dehydroprolyl-[5-(2-guanidino)thiazolylmethyl]amide Bishydrochloride]
50 | 6 | CCOC(=O)CCCCCN[C@@H](C(=O)N1CCC[C@H]1C(=O)NCc1ccc(C(=N)N)nc1)C1CCCCC1 [Example 25, C2H5OOC—(CH2)5-(D)Chg-Pro-NH-3-(6-am)-pico.CH3COOH]
3 | 2 | N=C(N)c1ccc(CNC(=O)[C@@H]2C=CCN2C(=O)[C@@H](CC2CCCCC2)NS(=O)(=O)Cc2ccccc2)cn1 [Example 15, C6H5—CH2—SO2-(D)Cha-Pyr-NH-3-(6-am)-pico.CH3COOH]
30 | 30 | N=C(N)c1ccc(CNC(=O)[C@@H]2C=CCN2C(=O)C(CCC2CCCCC2)NCC(=O)O)cn1 (stereo partly drawn) [Example 19, HOOC—CH2-HCha-Pyr-NH-3-(6-am)-pico]
0.5 | 0.8 | N=C(N)c1ccc(CNC(=O)[C@@H]2C=CCN2C(=O)[C@H](NS(=O)(=O)Cc2ccc(N)cc2)C2CCCCC2)cn1 [Example 23, H2N-p-C6H4—CH2—SO2-(D)Chg-Pyr-NH-CH2-3-(6-am)-pico.HCl]
– | 6 | CC(C)(C)OC(=O)N[C@H](CC(=O)OCc1ccccc1)C(=O)N1CCC[C@H]1C(=O)NCc1ccc(C(=N)N)cc1 [Example 6, Boc-(D)Asp(OBn)-Pro-NH-p-amb.CH3COOH]
– | 10 | CC(C)[C@@H](N)C(=O)N1CCC[C@H]1C(=O)NCc1ccc(C(=N)N)cc1 [Example 5, H-(D)Val-Pro-NH-p-amb.2HCl]

Compound | IC50 [1] [µM] | IC50 [2] [µM]
N=C(N)c1ccc(CNC(=O)[C@@H]2CCCN2C(=O)[C@@H](Cc2ccccc2)NS(=O)(=O)CC(F)(F)F)cc1 [Example 1, CF3—CH2—SO2-(D)Phe-Pro-NH-p-amb.CH3COOH] | > 100 | 6
